Results on 60 compounds are retold here after patent publication US9062057B2, “CCR5 antagonists for treating HIV” (Purdue Research Foundation, priority 2010, dated 2015).

The target of the experiment is CCR5 chemokine receptor (Homo sapiens, UniProt P51681). Description: Inhibition Data (IC50; no method described). The conditions noted are these: assay not described, read-out: Activity (*) (IC50 class).
Chain of CCR5 chemokine receptor (P51681 whole entry): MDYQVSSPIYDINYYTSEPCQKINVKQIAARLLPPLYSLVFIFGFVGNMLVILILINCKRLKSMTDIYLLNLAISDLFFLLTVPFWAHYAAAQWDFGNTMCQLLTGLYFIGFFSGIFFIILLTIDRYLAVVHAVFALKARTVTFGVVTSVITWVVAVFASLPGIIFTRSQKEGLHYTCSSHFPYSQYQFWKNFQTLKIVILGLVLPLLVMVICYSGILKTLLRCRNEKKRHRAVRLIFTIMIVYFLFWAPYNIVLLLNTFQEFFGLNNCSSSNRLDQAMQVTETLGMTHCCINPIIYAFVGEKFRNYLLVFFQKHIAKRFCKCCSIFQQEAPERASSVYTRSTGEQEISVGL
With `Cc1nnc(C2CO[C@H]3OCCC23)n1C1CC2CCC(C1)N2CC[C@H](NC(=O)OCc1ccccc1)c1ccccc1` (stereo partly drawn) [Example 80], the IC50 was below 0.1 µM. The same measure for `CN(C[C@@](C)(CCN1CC[C@H]2CN(C(=O)OCc3ccccc3)C[C@H]2C1)c1ccccc1)S(=O)(=O)c1ccccc1` [Example 7]: below 0.1 µM; for `CN1N=C2CCN(CC[C@](C)(CN(C)S(=O)(=O)c3ccccc3)c3ccccc3)CC2(Cc2ccccc2)C1=O` (stereo partly drawn) [Example 52]: below 1 µM. In the case of `CN(CC(C)(CCN1CCC2C(CCN2C(=O)OC2CCOC2)C1)c1ccccc1)S(=O)(=O)c1ccccc1` (stereo not drawn) [Example 29], the IC50 is below 1 µM. Consider `CN(C[C@@](C)(CCN1CCC2C(CCN2C(=O)OC(C)(C)C)C1)c1ccccc1)S(=O)(=O)c1ccccc1` (stereo partly drawn) [Example 43], for which the IC50 is below 0.1 µM. The result for `CN(CC(C)(CCN1CCC2C(CCN2C(=O)OC(C)(C)C)C1)c1ccccc1)S(=O)(=O)c1ccc(CNC(=O)OCc2ccccc2)cc1` (stereo not drawn) [Example 37] reads below 1 µM. The same measure for `CC(=O)NCc1ccc(S(=O)(=O)N(C)CC(C)(CCN2CCC3C(CCN3C(=O)OC(C)(C)C)C2)c2ccccc2)cc1` (stereo not drawn) [Example 38]: below 0.1 µM; for `C[C@@H](NC(=O)N1CC2CCN(CC[C@](C)(CN(C)S(=O)(=O)c3ccccc3)c3ccccc3)C[C@@H]2C1)c1ccccc1` (stereo partly drawn) [Example 13]: below 0.1 µM.

As for `CC(C)[C@H](NC(=O)OCc1ccccc1)C(=O)N1CC2CN(C(=O)OC(C)(C)C)CC[C@H]2C1` (stereo partly drawn) [Example 72], the IC50 is below 1 µM. The result for `CN(C[C@@](C)(CCN1C[C@H]2CCN(C(=O)OC(C)(C)C)C[C@H]2C1)c1ccccc1)S(=O)(=O)c1ccccc1` [Example 10] reads below 0.1 µM; that for `CN(C[C@@](C)(CCN1CC[C@H]2CN(C(N)=O)C[C@H]2C1)c1ccccc1)S(=O)(=O)c1ccccc1` [Example 76], below 1 µM; that for `CN(C[C@@](C)(CCN1CC[C@@H]2[C@@H](CCN2C(=O)OC(C)(C)C)C1)c1ccccc1)S(=O)(=O)c1ccccc1` [Example 44], below 0.01 µM. As for `CN(C[C@@](C)(CCN1CC[C@H]2OC(C)(C)O[C@H]2C1)c1ccccc1)S(=O)(=O)c1ccccc1` [Example 71], the half-inhibitory concentration (IC50) was below 1 µM. On to `CC(C)(C)OC(=O)N1CC[C@H]2CN(C(=O)O[C@H]3CCOC3)C[C@H]2C1` [Example 74], for which the IC50 was below 1 µM. The same measure for `Cc1nnc(C(C)C)n1C1CC2CCC(C1)N2CC[C@](C)(CN(C)S(=O)(=O)c1ccccc1)c1ccccc1` (stereo partly drawn) [Example 16]: below 0.01 µM; for `CN(CC(C)(CCN1CCC2C(CCN2C(=O)OC(C)(C)C)C1)c1ccccc1)S(=O)(=O)c1ccc(CNC(=O)O[C@H]2CCOC2)cc1` (stereo partly drawn) [Example 40]: below 0.1 µM; for `CN(C[C@@](C)(CCN1CC[C@H]2CN(C(=O)OCc3ccccc3)C[C@H]2C1)c1ccccc1)S(=O)(=O)c1ccccc1` [Example 75]: below 1 µM.

As for `C[C@H](NC(=O)N1C[C@H]2CN(CC[C@](C)(CN(C)S(=O)(=O)c3ccccc3)c3ccccc3)CC[C@H]2C1)c1ccccc1` [Example 14], the IC50 is below 1 µM.

`CC(C)(C)OC(=O)N1CCC2CN(C(=O)[C@@H](N)Cc3ccccc3)CCC21` (stereo partly drawn) [Example 27]: the IC50 is below 1 µM.

For the compound `Cc1nnc(C2CO[C@H]3OCCC23)n1C1CC2CCC(C1)N2CC[C@H](N)c1ccccc1` (stereo partly drawn) [Example 82], the IC50 was below 1 µM. The result for `CC(=O)OC(OC(C)=O)c1ccc(S(=O)(=O)N(C)CC(C)(CCN2CCC3C(CCN3C(=O)OC(C)(C)C)C2)c2ccccc2)cc1` (stereo not drawn) [Example 35] reads below 0.1 µM; that for `CN(C[C@@](C)(CCN1CCC2(CC1)CCN(C(=O)OC(C)(C)C)C2)c1ccccc1)S(=O)(=O)c1ccccc1` [Example 58], below 1 µM. As for `CN(C[C@@](C)(CCN1CC[C@H]2[C@H](CCN2C(=O)OC(C)(C)C)C1)c1ccccc1)S(=O)(=O)c1ccc(CNC(=O)O[C@H]2CCOC2)cc1` [Example 3], the IC50 is below 1 µM.

As for `COc1cccc(C(C)(CCN2CCC3C(CCN3C(=O)OC(C)(C)C)C2)CN(C)S(=O)(=O)c2ccccc2)c1` (stereo not drawn) [Example 50], the half-inhibitory concentration (IC50) is below 1 µM. The result for `CN(C[C@@](C)(CCN1CC[C@H]2[C@H](CCN2C(=O)OC(C)(C)C)C1)c1ccccc1)S(=O)(=O)c1ccccc1` [Example 2] reads below 1 µM. Consider `CO[C@](CCN1CCC2C(CCN2C(=O)OC(C)(C)C)C1)(CN(C)S(=O)(=O)c1ccccc1)c1ccccc1` (stereo partly drawn) [Example 31], for which the IC50 is below 1 µM. The same measure for `CN(CC(C)(CCN1CCC2C(CCN2C(=O)OC(C)(C)C)C1)c1ccccc1)S(=O)(=O)c1ccccc1` (stereo not drawn) [Example 32]: below 0.1 µM; for `CC1CN(CC[C@](C)(CN(C)S(=O)(=O)c2ccccc2)c2ccccc2)CCC12C=Cc1ccccc12` (stereo partly drawn) [Example 48]: below 1 µM. Regarding `CC(C)(C)OC(=O)N1CCC2CN(C(=O)[C@H](Cc3ccccc3)NC(=O)OCc3ccccc3)CCC21` (stereo partly drawn) [Example 26], the IC50 is below 1 µM. The result for `CN(C[C@@](C)(CCN1CC[C@H]2CNC(=O)[C@H]2C1)c1ccccc1)S(=O)(=O)c1ccccc1` [Example 69] reads below 1 µM.

Take `CN(C[C@@](C)(CCN1CCC2(CCCN2C(=O)OC(C)(C)C)CC1)c1ccccc1)S(=O)(=O)c1ccccc1` [Example 65]: the IC50 is below 1 µM. On to `Cc1ccc(S(=O)(=O)N[C@@H](CCN2C3CCC2CC(n2c(C)nnc2C2CO[C@H]4OCCC24)C3)c2ccccc2)cc1` (stereo partly drawn) [Example 83], for which the IC50 is below 1 µM.

For `C[C@H](NC(=O)N1CC2CN(CC[C@](C)(CN(C)S(=O)(=O)c3ccccc3)c3ccccc3)CC[C@H]2C1)c1cccc2ccccc12` (stereo partly drawn) [Example 17], the IC50 was below 1 µM. For `CN(C[C@@](C)(CCNC1C2CCC1CN(C(=O)OC(C)(C)C)C2)c1ccccc1)S(=O)(=O)c1ccccc1` (stereo partly drawn) [Example 66], the IC50 was below 1 µM. On to `CN(C[C@@](C)(CCN1CC[C@H]2CN(C(=O)OCc3ccccc3)C[C@H]2C1)c1ccccc1)S(=O)(=O)c1ccccc1` [Example 11], for which the IC50 is below 0.1 µM. As to `CN(CC(C)(CCN1CCC2C(CCN2C(=O)OC(C)(C)C)C1)c1ccccc1)S(=O)(=O)c1ccccc1` (stereo not drawn) [Example 25], the IC50 is below 0.01 µM. The result for `CC(C)COC(=O)NC1CC2CCC(C1)N2CC[C@](C)(CN(C)S(=O)(=O)c1ccccc1)c1ccccc1` (stereo partly drawn) [Example 20] reads below 0.1 µM. The same measure for `CN(C[C@@](C)(CCN1CC2CCN(C(=O)OC(C)(C)C)C2C1)c1ccccc1)S(=O)(=O)c1ccccc1` (stereo partly drawn) [Example 22]: below 1 µM; for `C[C@@H](NC(=O)N1CC2CCN(CC[C@](C)(CN(C)S(=O)(=O)c3ccccc3)c3ccccc3)C[C@@H]2C1)c1ccccc1` (stereo partly drawn) [Example 12]: below 0.1 µM. The same measure for `C[C@H](NC(=O)N1CC2CN(CC[C@](C)(CN(C)S(=O)(=O)c3ccccc3)c3ccccc3)CC[C@H]2C1)c1cccc2ccccc12` (stereo partly drawn) [Example 79]: below 1 µM. With `CN(CC(C)(CCN1CCC2C(CCN2C(=O)OC2CO[C@H]3OCCC23)C1)c1ccccc1)S(=O)(=O)c1ccccc1` (stereo partly drawn) [Example 28], the IC50 is below 0.1 µM.

As for `CN(CC(C)(CCN1CCC2C(CCN2C(=O)OC(C)(C)C)C1)c1ccccc1)S(=O)(=O)c1ccc(C(=O)OCc2ccccc2)cc1` (stereo not drawn) [Example 33], the IC50 was below 1 µM. The same measure for `Cc1ccc(S(=O)(=O)N2C[C@H]3CN(CC[C@](C)(CN(C)S(=O)(=O)c4ccccc4)c4ccccc4)CC[C@H]3C2)cc1` [Example 18]: below 1 µM; for `CN(C[C@@](C)(CCN1CC[C@H]2CNC[C@H]2C1)c1ccccc1)S(=O)(=O)c1ccccc1` [Example 8]: below 1 µM. The result for `CN(C[C@@](C)(CCN1C2CCC1CC(NC(=O)OCc1ccccc1)C2)c1ccccc1)S(=O)(=O)c1ccccc1` (stereo partly drawn) [Example 5] reads below 0.1 µM; that for `COC(=O)[C@@H](CCSC)NC(=O)C1CCN(CC[C@](C)(CN(C)S(=O)(=O)c2ccccc2)c2ccccc2)CC1` [Example 56], below 1 µM. The result for `CN(C[C@@](C)(CCNC1CC2CCC(C1)N2C(=O)OC(C)(C)C)c1ccccc1)S(=O)(=O)c1ccccc1` (stereo partly drawn) [Example 67] reads below 1 µM. Turning to `CN(C[C@@](C)(CCN1CC2CN(C(=O)OC(C)(C)C)[C@H]2C1)c1ccccc1)S(=O)(=O)c1ccccc1` (stereo partly drawn) [Example 64], the IC50 is below 1 µM.

On to `CN(C[C@@](C)(CCN1C2CCC1CC(NC(=O)O[C@H]1CCOC1)C2)c1ccccc1)S(=O)(=O)c1ccccc1` (stereo partly drawn) [Example 21], for which the IC50 is below 0.1 µM. The result for `CN(CC(C)(CCN1CCC2C(CCN2C(=O)OC(C)(C)C)C1)c1ccccc1)S(=O)(=O)c1ccc(C(=O)O)cc1` (stereo not drawn) [Example 34] reads below 0.1 µM; that for `CO[C@@](CCN1CCC2C(CCN2C(=O)OC(C)(C)C)C1)(CN(C)S(=O)(=O)c1ccccc1)c1ccccc1` (stereo partly drawn) [Example 30], below 1 µM.

Consider `CN1N=C2CCN(CC[C@](C)(CN(C)S(=O)(=O)c3ccccc3)c3ccccc3)CC2(C)C1=O` (stereo partly drawn) [Example 51], for which the half-inhibitory concentration (IC50) was below 1 µM. The result for `CN(CC(C)(CCN1CCC2C(CCN2C(=O)OC(C)(C)C)C1)c1ccccc1)S(=O)(=O)c1ccc(CNC(=O)OC(C)(C)C)cc1` (stereo not drawn) [Example 39] reads below 1 µM; that for `CN(C[C@@](C)(CCN1CC[C@H]2CN(C(=O)OC(C)(C)C)C[C@H]2C1)c1ccccc1)S(=O)(=O)c1ccccc1` [Example 9], below 0.1 µM. The same measure for `CN(C[C@@](C)(CCN1C2CCC1CC(NC(=O)OC(C)(C)C)C2)c1ccccc1)S(=O)(=O)c1ccccc1` (stereo partly drawn) [Example 70]: below 1 µM. The result for `CN(C[C@@](C)(CCN1CC[C@@H]2[C@@H](CCN2C(=O)OC(C)(C)C)C1)c1ccccc1)S(=O)(=O)c1ccccc1` [Example 1] reads below 0.001 µM; that for `CN(C[C@@](C)(CCN1CC[C@@H]2[C@@H](CCN2C(=O)OC(C)(C)C)C1)c1ccccc1)S(=O)(=O)c1ccc(CNC(=O)O[C@H]2CCOC2)cc1` [Example 4], below 0.001 µM.

For `COc1ccc(C(C)(CCN2CCC3C(CCN3C(=O)OC(C)(C)C)C2)CN(C)S(=O)(=O)c2ccccc2)cc1` (stereo not drawn) [Example 49], the IC50 was below 0.1 µM.

For the compound `C[C@H](c1ccccc1)N(C)C(=O)N1C[C@H]2CN(CC[C@](C)(CN(C)S(=O)(=O)c3ccccc3)c3ccccc3)CC[C@H]2C1` [Example 15], the IC50 was below 0.1 µM. The result for `Cc1nc(COC(=O)N2C[C@H]3CN(CC[C@](C)(CN(C)S(=O)(=O)c4ccccc4)c4ccccc4)CC[C@H]3C2)c(C)o1` [Example 19] reads below 1 µM.

One may read the IC50 as the concentration that gives 50% inhibition.
